Source: patent publication US20040072770A1, “Methods for specifically inhibiting histone deacetylase-7 and 8” (priority 2002, published 2004)

What was measured:
[1] = tested on: breast cancer cells MCF-7; test: MTT assay, MCF-7; format: cell-based; details: Homo sapiens, MCF7; 72 hours
Procedure: (§1) Effects of HDAC isotype-specific small molecule inhibitors on growth inhibition of various human cancer cells (from ATCC) in vitro were determined by MTT assays. Briefly, cells seeded in 96-well plates were incubated for 72 hours at 37° C. in a 5% CO2 incubator. MTT (Sigma) was added at a final concentration of 0.5 mg/ml and incubated with the cells for 4 hours before an equal volume of solubilization buffer (50% N,N-dimethylformamide, 20% SDS, pH 4.7) was added onto cultured cells. After overnight incubation, solubilized dye was quantified by colorimetric reading at […] using a reference at 630 nM. OD values were converted to cell numbers according to a standard growth curve of the relevant cell line. The concentration which reduces cell numbers to 50% of those of DMSO-treated cells is determined as MTT IC50. In Table 4, IC50s of several HDAC7 or HDAC8 inhibitors in MTT assays in various human cancer cell lines were listed. They include colon cancer cells HCT116 and SW48, lung cancer cells A549 and H446, breast cancer cells MCF-7 and MDAmb231, a prostate cancer cell line Du145 and a bladder cancer cell line T24.

HDAC-4 = HDAC-4 (Homo sapiens, UniProt P56524); test: Enzyme inhibitory activity, HD4; format: biochemical
colon cancer cells SW48 = test: MTT assay, SW48; format: cell-based; details: Homo sapiens, 72 hours, read-out: MTT IC50 SW 48
Procedure: as §1

lung cancer cells H446 = test: MTT assay, H446; format: cell-based; details: Homo sapiens, NCI-H446; 72 hours; read-out: MTT IC50 H 446
Procedure: as §1

[2] = tested on: prostate cancer cell line Du145; test: MTT assay, Du145; format: cell-based; details: Homo sapiens, DU-145; 72 hours
Procedure: as §1

[3] = tested on: breast cancer cells MDAmb231; test: MTT assay, MDAmb231; format: cell-based; details: Homo sapiens, MDA-MB-231; 72 hours
Procedure: as §1

lung cancer cells A549 = test: MTT assay, A549; format: cell-based; details: Homo sapiens, 72 hours, read-out: IC50 A 549 (MTT)
Procedure: as §1

HDAC-1 = HDAC-1 (Homo sapiens, UniProt Q13547); test: Enzyme inhibitory activity, HD1; format: biochemical; details: read-out: IC50 HD 1
HDAC-7 = target: T1, HDAC-7 (Homo sapiens, UniProt Q8WUI4); test: Enzyme inhibitory activity, HD7; format: biochemical; details: read-out: IC50 HD 7
T1 sequence (Q8WUI4 1-952): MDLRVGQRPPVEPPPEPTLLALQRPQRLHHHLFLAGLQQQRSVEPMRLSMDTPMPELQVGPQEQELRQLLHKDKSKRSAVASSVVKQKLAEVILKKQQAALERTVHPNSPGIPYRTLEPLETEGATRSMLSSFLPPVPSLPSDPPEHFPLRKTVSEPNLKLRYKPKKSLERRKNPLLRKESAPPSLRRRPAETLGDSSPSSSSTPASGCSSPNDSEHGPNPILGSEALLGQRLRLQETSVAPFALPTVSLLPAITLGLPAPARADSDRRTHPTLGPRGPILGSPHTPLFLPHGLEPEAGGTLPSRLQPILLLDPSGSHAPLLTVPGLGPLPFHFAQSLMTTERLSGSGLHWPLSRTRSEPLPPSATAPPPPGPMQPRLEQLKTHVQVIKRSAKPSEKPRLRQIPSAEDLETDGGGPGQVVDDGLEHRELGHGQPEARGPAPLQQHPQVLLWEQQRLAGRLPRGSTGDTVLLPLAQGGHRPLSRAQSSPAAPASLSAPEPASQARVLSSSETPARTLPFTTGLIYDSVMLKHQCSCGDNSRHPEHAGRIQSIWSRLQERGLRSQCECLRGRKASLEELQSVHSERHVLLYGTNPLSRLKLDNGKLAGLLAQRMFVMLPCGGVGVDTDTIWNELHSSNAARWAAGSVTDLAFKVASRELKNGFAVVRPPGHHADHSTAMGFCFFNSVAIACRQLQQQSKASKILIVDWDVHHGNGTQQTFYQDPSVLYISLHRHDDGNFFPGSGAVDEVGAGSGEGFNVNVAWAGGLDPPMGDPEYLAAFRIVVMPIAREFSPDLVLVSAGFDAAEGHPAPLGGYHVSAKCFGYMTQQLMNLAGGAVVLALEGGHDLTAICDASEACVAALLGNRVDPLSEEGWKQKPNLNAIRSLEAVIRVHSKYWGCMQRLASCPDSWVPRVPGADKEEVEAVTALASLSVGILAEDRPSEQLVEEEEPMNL

[4] = tested on: colon carcinoma cells HCT116 tumors; test: Tumor growth in a mouse model, HCT116; format: in vivo; details: intraperitoneal, BALB/c nude mice, vs vehicle-treated
Procedure: Female BALB/c nude mice are obtained from Charles River Laboratories (Charles River, N.Y.) and used at age 8-10 weeks. Human tumor cells (2×10^6, colon carcinoma cells HCT116 or SW48, lung carcinoma cells A549, pancreatic carcinoma Panc-1, ovarian carcinoma cells ES2, or prostate carcinoma cells Du145) are injected subcutaneously in the animal's flank and allowed to form solid tumors. Tumor fragments are serially passaged a minimum of three times, then approximately 30 mg tumor fragments are implanted subcutaneously through a small surgical incision under general anaesthesia. Small molecule inhibitor administration by intraperotineal or oral administration was initiated when the tumors reached a volume of 100 mm^3. For intraperotineal administration, small molecule inhibitors of HDAC-7, HDAC-8 or both, or in combination with small molecule inhibitors of HDAC-1 (20-60 mg/kg body weight/day) are dissolved in 100% DMSO and administered daily by injection. For oral administration, small molecule inhibitors of HDAC (60 mg/kg body weight) are dissolved in saline acidified with 0.2 N HCl. Tumor volumes are monitored twice weekly up to 20 days. Each experimental group contains at least 6-8 animals. Percentage inhibition is calculated using volume of tumor from vehicle-treated mice as controls. Shown in Table 4, inhibition of HDAC7 or HDAC8 in combination with HDAC1 leads to inhibition of growth of various human tumors in vivo.

[5] = tested on: bladder cancer cell line T24; test: MTT assay, T24; format: cell-based; details: Homo sapiens; 72 hours; read-out: MTT IC50 T 24
Procedure: as §1

[6] = (20,I): 20 mg/kg body weight/day

Chain of HDAC-1 (Q13547 whole entry): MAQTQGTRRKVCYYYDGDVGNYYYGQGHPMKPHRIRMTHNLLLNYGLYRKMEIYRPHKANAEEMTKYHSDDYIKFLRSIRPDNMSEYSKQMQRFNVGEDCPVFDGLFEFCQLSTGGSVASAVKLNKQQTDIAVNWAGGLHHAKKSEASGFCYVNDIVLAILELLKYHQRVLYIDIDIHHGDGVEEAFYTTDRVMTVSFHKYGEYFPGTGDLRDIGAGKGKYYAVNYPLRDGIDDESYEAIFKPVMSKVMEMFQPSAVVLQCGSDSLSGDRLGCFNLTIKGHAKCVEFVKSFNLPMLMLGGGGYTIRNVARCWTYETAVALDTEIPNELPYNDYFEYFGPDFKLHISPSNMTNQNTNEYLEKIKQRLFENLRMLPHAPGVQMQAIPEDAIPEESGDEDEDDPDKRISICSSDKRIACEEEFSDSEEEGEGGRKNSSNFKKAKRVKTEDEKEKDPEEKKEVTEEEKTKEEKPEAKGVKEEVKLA
Chain of HDAC-4 (P56524 whole entry): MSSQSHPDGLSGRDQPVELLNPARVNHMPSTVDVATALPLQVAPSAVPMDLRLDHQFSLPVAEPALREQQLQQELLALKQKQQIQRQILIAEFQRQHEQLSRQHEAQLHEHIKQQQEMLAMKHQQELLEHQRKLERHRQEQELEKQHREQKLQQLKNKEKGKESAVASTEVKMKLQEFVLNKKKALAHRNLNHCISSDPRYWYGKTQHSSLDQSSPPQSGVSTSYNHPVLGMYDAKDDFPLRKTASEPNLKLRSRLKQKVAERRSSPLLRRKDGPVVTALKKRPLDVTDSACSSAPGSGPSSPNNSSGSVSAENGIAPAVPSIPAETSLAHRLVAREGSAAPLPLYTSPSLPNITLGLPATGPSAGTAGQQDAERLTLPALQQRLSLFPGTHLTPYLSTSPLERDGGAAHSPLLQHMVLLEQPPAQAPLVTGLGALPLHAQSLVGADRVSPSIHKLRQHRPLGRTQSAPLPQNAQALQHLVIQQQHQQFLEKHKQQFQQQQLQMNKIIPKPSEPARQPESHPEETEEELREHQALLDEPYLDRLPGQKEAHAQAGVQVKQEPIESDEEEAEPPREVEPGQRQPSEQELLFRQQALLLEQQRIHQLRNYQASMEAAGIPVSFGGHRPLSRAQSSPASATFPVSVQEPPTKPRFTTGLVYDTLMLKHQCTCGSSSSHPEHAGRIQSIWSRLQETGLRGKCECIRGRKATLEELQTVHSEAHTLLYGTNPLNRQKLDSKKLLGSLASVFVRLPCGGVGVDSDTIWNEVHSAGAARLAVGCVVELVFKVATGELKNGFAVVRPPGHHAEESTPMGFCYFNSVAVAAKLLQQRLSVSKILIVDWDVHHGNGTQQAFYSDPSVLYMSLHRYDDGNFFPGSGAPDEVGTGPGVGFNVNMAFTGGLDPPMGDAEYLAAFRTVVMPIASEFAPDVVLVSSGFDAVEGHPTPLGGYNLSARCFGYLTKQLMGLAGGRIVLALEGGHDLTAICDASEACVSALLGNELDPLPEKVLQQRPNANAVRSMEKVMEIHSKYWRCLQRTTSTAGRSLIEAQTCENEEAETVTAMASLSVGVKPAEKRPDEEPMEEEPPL

| SMILES | IC50 [1] | IC50 (HDAC-4) | IC50 (colon cancer cells SW48) | IC50 (lung cancer cells H446) | IC50 [2] | IC50 [3] | IC50 (lung cancer cells A549) | IC50 (HDAC-1) | IC50 (HDAC-7) | % of Inhibition of Tumor Growth in Vivo HCT116 [4, 6] | % of Inhibition of Tumor Growth in Vivo HCT116 ([4]; (40,I): 40 mg/kg body weight/day) | IC50 [5] |
| --- | --- | --- | --- | --- | --- | --- | --- | --- | --- | --- | --- | --- |
| COc1ccc(-c2ccnc(NCc3ccc(C(=O)Nc4ccccc4N)cc3)n2)cc1OC [Compound 21, N-(2-Amino-phenyl)-4-{[4-(3,4-dimethoxy-phenyl)-pyrimidin-2-ylamino]-methyl}-benzamide] | 0.7 µM | > 50 µM | 0.8 µM | 0.3 µM | 0.5 µM | 0.5 µM | 0.3 µM | 4 µM | 37 µM |  |  |  |
| Cc1ccc(S(=O)(=O)Nc2ccc(/C=C/C(=O)Nc3ccccc3N)cc2)cc1 [Compound 5, N-(2-Aminophenyl)-3-[4-(4-methylbenzenesulfonylamino)-phenyl]-acrylamide] | 6 µM |  | 10 µM | 1 µM | 2 µM | 2 µM | 8 µM |  | 20 µM | 48(20,I) % | 55(40,I) % | 8 µM |
| COc1ccc(NCc2ccc(C(=O)Nc3ccccc3N)cc2)cc1OC [Compound 17, N-(2-Aminophenyl)-4-[(3,4-dimethoxyphenylamino)-methyl]-benzamide] | 3 µM | > 50 µM | 2 µM | 0.9 µM | 2 µM | 2 µM | 3 µM | 2 µM | 45 µM | 77(20,I) % |  | 2 µM |
| Nc1ccccc1NC(=O)c1ccc(CSc2nc3ccccc3[nH]2)cc1 [Compound 16, N-(2-Amino-phenyl)-4-(1H-benzimidazol-2-ylsulfanylmethyl)-benzamide] | 3 µM | 29 µM | 2 µM | 1 µM | 0.7 µM | 1 µM | 2 µM | 0.3 µM | 38 µM | 61(20,I) % |  | 1 µM |
